From PubChem BioAssay AID328 (DTP/NCI, 2004)
“And” between values parts separate entries of the source, which are not always exact repeats. Equal entries are not always repeated. Inconclusive results and toxic doses are left out.

Test system: BDF1 mice, P388 leukemia ip, median survival T/C
Assay: NCI In Vivo Anticancer Drug Screen. Data for tumor model P388 Leukemia (intraperitoneal) in B6D2F1 (BDF1) mice
Settings: endpoint: median survival time, higher = longer survival
Method in brief: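 Steps: implant the tumour, treat one group with compound and another with vehicle, record survival, then divide treated by control.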

[1] = dose: 50.0 mg/kg/injection, schedule: Q01DX009 (ip), vehicle: saline with Tween-80
[2] = dose: 100.0 mg/kg/injection, schedule: Q01DX009 (ip), vehicle: saline with Tween-80
[3] = dose: 200.0 mg/kg/injection, schedule: Q01DX009 (ip), vehicle: saline with Tween-80
[4] = dose: 100.0 mg/kg/injection, schedule: Q04DX003 (ip), vehicle: saline with Tween-80
[5] = dose: 200.0 mg/kg/injection, schedule: Q04DX003 (ip), vehicle: saline with Tween-80
[6] = dose: 400.0 mg/kg/injection, schedule: Q01DX009 (ip), vehicle: saline with Tween-80
[7] = dose: 400.0 mg/kg/injection, schedule: Q04DX003 (ip), vehicle: saline with Tween-80
[8] = dose: 200.0 mg/kg/injection, schedule: Q04DX003 (ip), vehicle: Klucel (hydroxypropylcellulose) (HPC)
[9] = dose: 50.0 mg/kg/injection, schedule: Q01DX009 (ip), vehicle: saline
[10] = dose: 200.0 mg/kg/injection, schedule: Q01DX009 (ip), vehicle: saline

CC(C)(C)NCC(CN(CC(CNC(C)(C)C)C(=O)c1ccccc1)C(C)(C)C)C(=O)c1ccccc1 (configuration not stated)
T/C (dose: 12.5 mg/kg/injection, schedule: Q04DX003 (ip), vehicle: Klucel (hydroxypropylcellulose) (HPC)): 104 % of control | T/C (dose: 25.0 mg/kg/injection, schedule: Q04DX003 (ip), vehicle: Klucel (hydroxypropylcellulose) (HPC)): 104 % of control | T/C (dose: 50.0 mg/kg/injection, schedule: Q04DX003 (ip), vehicle: Klucel (hydroxypropylcellulose) (HPC)): 112 % of control

CSc1ccc(NC(=O)NN(c2ccccc2)C2CCS(=O)(=O)C2)cc1 (configuration not stated)
T/C [1]: 100 % of control | T/C [2]: 102 % of control | T/C [3]: 101 % of control

O=NN(CCCl)C(=O)Nc1cc(NC(=O)N(CCCl)N=O)cc(C(=O)O)c1
T/C (dose: 0.03 mg/kg/injection, schedule: Q04DX003 (ip), vehicle: saline with Tween-80): 116 % of control | T/C (dose: 0.06 mg/kg/injection, schedule: Q04DX003 (ip), vehicle: saline with Tween-80): 120 % of control and 122 % of control | T/C (dose: 0.5 mg/kg/injection, schedule: Q04DX003 (ip), vehicle: saline with Tween-80): 150 % of control | T/C (dose: 0.6 mg/kg/injection, schedule: Q04DX003 (ip), vehicle: saline with Tween-80): 163 % of control | T/C (dose: 1.0 mg/kg/injection, schedule: Q04DX003 (ip), vehicle: saline with Tween-80): 170 % of control | T/C (dose: 1.8 mg/kg/injection, schedule: Q04DX003 (ip), vehicle: saline with Tween-80): 195 % of control | T/C (dose: 2.0 mg/kg/injection, schedule: Q04DX003 (ip), vehicle: saline with Tween-80): 200 % of control | T/C (dose: 2.3 mg/kg/injection, schedule: Q04DX003 (ip), vehicle: saline with Tween-80): 215 % of control | T/C (dose: 2.5 mg/kg/injection, schedule: Q04DX003 (ip), vehicle: saline with Tween-80): 195 % of control | T/C (dose: 3.5 mg/kg/injection, schedule: Q04DX003 (ip), vehicle: saline with Tween-80): 265 % of control | T/C (dose: 3.7 mg/kg/injection, schedule: Q04DX003 (ip), vehicle: saline with Tween-80): 186 % of control | T/C (dose: 5.5 mg/kg/injection, schedule: Q04DX003 (ip), vehicle: saline with Tween-80): 235 % of control | T/C (dose: 6.0 mg/kg/injection, schedule: Q04DX003 (ip), vehicle: saline with Tween-80): 222 % of control | T/C (dose: 8.5 mg/kg/injection, schedule: Q04DX003 (ip), vehicle: saline with Tween-80): 275 % of control | T/C (dose: 13.0 mg/kg/injection, schedule: Q04DX003 (ip), vehicle: saline with Tween-80): 250 % of control and 300 % of control | T/C (dose: 18.0 mg/kg/injection, schedule: Q04DX003 (ip), vehicle: saline with Tween-80): 272 % of control | T/C (dose: 20.0 mg/kg/injection, schedule: Q04DX003 (ip), vehicle: saline with Tween-80): 272 % of control and 300 % of control and 218 % of control | T/C (dose: 30.0 mg/kg/injection, schedule: Q04DX003 (ip), vehicle: saline with Tween-80): 235 % of control and 272 % of control | T/C (dose: 45.0 mg/kg/injection, schedule: Q04DX003 (ip), vehicle: saline with Tween-80): 95 % of control

O=C(Oc1ccc([N+](=O)[O-])cc1)c1ccc2ccccc2n1
T/C [2]: 111 % of control | T/C [4]: 95 % of control | T/C [3]: 111 % of control | T/C [5]: 109 % of control | T/C [6]: 95 % of control | T/C [7]: 90 % of control

O=C1OC(c2ccccc2)=N/C1=C\c1cccc(Br)c1
T/C (dose: 50.0 mg/kg/injection, schedule: Q04DX002 (ip), vehicle: saline with Tween-80): 99 % of control | T/C (dose: 100.0 mg/kg/injection, schedule: Q04DX002 (ip), vehicle: saline with Tween-80): 105 % of control | T/C (dose: 200.0 mg/kg/injection, schedule: Q04DX002 (ip), vehicle: saline with Tween-80): 89 % of control

CCOc1ccc(/C=N\N=C\c2ccc(OCC)cc2)cc1
T/C (dose: 12.5 mg/kg/injection, schedule: Q01DX009 (ip), vehicle: Klucel (hydroxypropylcellulose) (HPC)): 100 % of control | T/C (dose: 25.0 mg/kg/injection, schedule: Q01DX009 (ip), vehicle: Klucel (hydroxypropylcellulose) (HPC)): 96 % of control | T/C (dose: 100.0 mg/kg/injection, schedule: Q04DX003 (ip), vehicle: Klucel (hydroxypropylcellulose) (HPC)): 109 % of control | T/C [8]: 90 % of control | T/C (dose: 400.0 mg/kg/injection, schedule: Q04DX003 (ip), vehicle: Klucel (hydroxypropylcellulose) (HPC)): 90 % of control

O=C1OC(=O)C2C3C=CC(C4C=CC43)C12 (configuration not stated)
T/C (dose: 12.5 mg/kg/injection, schedule: Q04DX003 (ip), vehicle: saline): 101 % of control | T/C (dose: 25.0 mg/kg/injection, schedule: Q01DX009 (ip), vehicle: saline): 97 % of control | T/C (dose: 25.0 mg/kg/injection, schedule: Q04DX003 (ip), vehicle: saline): 104 % of control | T/C [9]: 97 % of control | T/C (dose: 50.0 mg/kg/injection, schedule: Q04DX003 (ip), vehicle: saline): 111 % of control and 124 % of control | T/C (dose: 100.0 mg/kg/injection, schedule: Q04DX003 (ip), vehicle: saline): 92 % of control and 106 % of control | T/C [10]: 86 % of control | T/C (dose: 200.0 mg/kg/injection, schedule: Q04DX003 (ip), vehicle: saline): 111 % of control and 119 % of control | T/C (dose: 400.0 mg/kg/injection, schedule: Q01DX009 (ip), vehicle: saline): 100 % of control | T/C (dose: 400.0 mg/kg/injection, schedule: Q04DX003 (ip), vehicle: saline): 109 % of control

CO[C@H]1C[C@H](O[C@H]2CC[C@]3(C=O)[C@H]4CC[C@]5(C)[C@@H](C6=CC(=O)OC6)CC[C@]5(O)[C@@H]4CC[C@]3(O)C2)O[C@H](C)[C@H]1O[C@@H]1O[C@H](CO[C@@H]2O[C@H](CO)[C@@H](O)[C@H](O)[C@H]2O)[C@@H](O)[C@H](O)[C@H]1O
T/C (dose: 0.5 mg/kg/injection, schedule: Q01DX010 (ip), vehicle: saline): 115 % of control | T/C (dose: 1.0 mg/kg/injection, schedule: Q01DX010 (ip), vehicle: saline): 110 % of control

FC(F)(F)c1nc2nccnc2[nH]1
T/C [9]: 100 % of control | T/C (dose: 100.0 mg/kg/injection, schedule: Q01DX009 (ip), vehicle: saline): 100 % of control | T/C [10]: 108 % of control | T/C [8]: 88 % of control

COc1c(O)cc2c(c1OC)-c1ccc(OC)c(=O)cc1[C@@H](NC(C)=O)CC2
T/C (dose: 0.62 mg/kg/injection, schedule: Q01DX009 (ip), vehicle: saline with Tween-80): 114 % of control | T/C (dose: 0.63 mg/kg/injection, schedule: Q01DX009 (ip), vehicle: saline with Tween-80): 159 % of control | T/C (dose: 1.25 mg/kg/injection, schedule: Q01DX009 (ip), vehicle: saline with Tween-80): 210 % of control | T/C (dose: 2.5 mg/kg/injection, schedule: Q01DX009 (ip), vehicle: saline with Tween-80): 236 % of control and 200 % of control | T/C (dose: 5.0 mg/kg/injection, schedule: Q01DX009 (ip), vehicle: saline with Tween-80): 236 % of control and 222 % of control | T/C (dose: 10.0 mg/kg/injection, schedule: Q01DX009 (ip), vehicle: saline with Tween-80): 210 % of control

COC(=O)C1(C)CCCC2(C)C1CCC13C=C(C(C)C)C(CC1C(=O)O)CC23 (configuration not stated)
T/C [1]: 95 % of control | T/C [2]: 91 % of control | T/C [3]: 95 % of control

Cc1cccc(C(=O)CC(O)(C(F)(F)F)C(F)(F)F)c1
T/C (dose: 100.0 mg/kg/injection, schedule: Q01DX001 (ip), vehicle: saline with Tween-80): 104 % of control | T/C (dose: 200.0 mg/kg/injection, schedule: Q01DX001 (ip), vehicle: saline with Tween-80): 100 % of control | T/C (dose: 400.0 mg/kg/injection, schedule: Q01DX001 (ip), vehicle: saline with Tween-80): 109 % of control

C=CC(=O)NCNC(=O)CCBr
T/C [5]: 150 % of control | T/C (dose: 300.0 mg/kg/injection, schedule: Q04DX003 (ip), vehicle: saline with Tween-80): 170 % of control

Cc1ccc(S(=O)(=O)F)c(Cl)c1
T/C (dose: 50.0 mg/kg/injection, schedule: Q01DX009 (ip), vehicle: other): 91 % of control | T/C (dose: 50.0 mg/kg/injection, schedule: Q04DX003 (ip), vehicle: saline with Tween-80): 100 % of control | T/C (dose: 100.0 mg/kg/injection, schedule: Q01DX009 (ip), vehicle: other): 91 % of control | T/C [4]: 104 % of control | T/C (dose: 200.0 mg/kg/injection, schedule: Q01DX009 (ip), vehicle: other): 91 % of control | T/C [5]: 109 % of control

Clc1nnc(Nc2ccccc2)c2ccccc12
T/C (dose: 100.0 mg/kg/injection, schedule: Q01DX001 (ip), vehicle: Klucel (hydroxypropylcellulose) (HPC)): 100 % of control | T/C (dose: 200.0 mg/kg/injection, schedule: Q01DX001 (ip), vehicle: Klucel (hydroxypropylcellulose) (HPC)): 91 % of control | T/C (dose: 400.0 mg/kg/injection, schedule: Q01DX001 (ip), vehicle: Klucel (hydroxypropylcellulose) (HPC)): 104 % of control

c1ccc(P(=NC2CCCC2)(c2ccccc2)c2ccccc2)cc1
T/C [4]: 110 % of control | T/C [5]: 100 % of control | T/C [7]: 110 % of control

COc1cc(/C=N/NC(=O)c2ccccc2)cc(OC)c1OC
T/C [2]: 95 % of control | T/C [4]: 109 % of control | T/C [3]: 100 % of control | T/C [5]: 104 % of control | T/C [6]: 95 % of control | T/C [7]: 90 % of control
